Data reported in patent publication US8916712B2, “Compositions and methods for cytoprotection” (Board of Trustees of the University of Arkansas, priority 2007, dated 2014).

Columns and labels:
[1] = biological target: T1, recombinant human DNase I (Homo sapiens, UniProt P24855); test: Plasmid incision assay of endonuclease activity, recombinant DNase I; type: biochemical
T1 construct: Recombinant DNase I was produced using a similar approach; made in house
T1 sequence (P24855 23-282): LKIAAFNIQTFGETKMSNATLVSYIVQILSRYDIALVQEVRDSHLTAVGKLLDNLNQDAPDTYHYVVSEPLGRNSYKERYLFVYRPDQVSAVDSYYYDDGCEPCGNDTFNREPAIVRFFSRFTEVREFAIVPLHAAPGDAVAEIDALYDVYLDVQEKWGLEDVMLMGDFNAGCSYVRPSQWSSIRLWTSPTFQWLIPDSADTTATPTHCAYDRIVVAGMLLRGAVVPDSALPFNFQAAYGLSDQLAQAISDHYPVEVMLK
Protocol: It was hypothesized that Zn^2+-chelates of aminothiols could provide radioprotection via their direct inhibition of nucleases and their antioxidant properties (i.e., prevent nuclease induction and release). To test this hypothesis, the activity of Zn(II) chelates to inhibit nucleases was assayed in vitro. For this, DNase I and EndoG were cloned, recombinant nuclease were expressed and purified for the in vitro assay. Human and mouse mature EndoG cDNA was reverse transcribed by RT-PCR from either normal human breast epithelial HMEC cells (Clonetics, Walkersville, Md.) or immortalized mouse proximal tubule epithelial TKPTS cells (obtained from D. Elsa Bello-Reuss, University of Texas Medical Branch, Galveston). The plasmid for mature human EndoG (A49-K297) with a C-terminal histidine tag and mouse mature EndoG (A45-K294) with a C-terminal histidine tag were constructed by inserting coding cDNA into pET29b(+) (Novagen, San Diego, Calif.) and expressed in Escherichia coli BL21 (DE3) cells using standard procedures. Expression of the recombinant proteins was induced by IPTG. The expressed recombinant protein was purified by HisTrap FF crude Kit (GE Healthcare, Uppsala, Sweden) and stored in 20 mM Tris-HCl, ph 7.5, 0.5 M NaCl, 2 mM 2-mercaptoethanol, and 50% glycerol.
(§1) Endonuclease activity was measured using a plasmid incision assay. Activity was measured in 20 μl samples containing 1 μg pBR322 plasmid DNA, 10 mM Tris-HCl, pH 7.7, 25 μg/ml bovine serum albumin V fraction, 0.5 mM dithiothreitol, 5 mM MgCl2, 2 mM CaCl2, and 2 μl endonuclease. After 1 hour incubation at 37° C., the reaction was stopped by the addition 5 μl 1% SDS, 100 mM EDTA. Digested DNA was then subjected to a 1% agarose gel electrophoresis at 7 V/cm for 1 hour at room temperature. The gel was stained in 0.5 μg/ml ethidium bromide solution for 20 minutes and photographed under […]. Scanning densitometer Fotodyne (Fotodyne Inc., Hartland, Wis.) was utilized to quantify the relative amount of endonuclease-treated plasmid DNA present in a covalently closed circular DNA (cccDNA), open circular DNA (ocDNA) or linear DNA (linDNA). One endonuclease unit was defined as the amount of enzyme required to convert 1 μg cccDNA to ocDNA and linDNA.
(§2) Recombinant DNase I and rat serum DNase (which is predominantly rat DNase I) were incubated with 0, 100, or 200 μM of a Zn^2+-chelate (i.e., Zn-3,5-diisopropylsalicylic acid (DIPS), Zn-gluconate, or Zn-glycinate), a ligand (i.e., DIPS, gluconic acid, or glycine, as negative controls), or ZnCl2 (as positive control).

[2] = biological target: T2, rat serum DNase (predominantly rat DNase I) (Rattus norvegicus, UniProt P21704); test: Plasmid incision assay of endonuclease activity, rat serum DNase; type: biochemical; conditions: 0, 100 or 200 μM; 1 hour at 37° C.; pBR322 plasmid DNA
T2 construct: rat serum DNase (which is predominantly rat DNase I); from tissue; host or cells: rat serum
T2 sequence (P21704 23-284): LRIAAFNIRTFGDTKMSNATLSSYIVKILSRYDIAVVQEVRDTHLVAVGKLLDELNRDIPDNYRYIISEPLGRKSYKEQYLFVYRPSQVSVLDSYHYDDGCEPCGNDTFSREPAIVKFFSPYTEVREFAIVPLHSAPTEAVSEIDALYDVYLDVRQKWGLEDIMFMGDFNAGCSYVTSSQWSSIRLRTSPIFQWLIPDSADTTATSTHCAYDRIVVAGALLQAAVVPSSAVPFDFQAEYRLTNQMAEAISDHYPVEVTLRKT
Protocol: as §1, §2

[3] = system: FRTL-5 thyroid cells; test: Radiation-induced thyroid cell death (450 Gy), LDH release assay or Comet assay; type: cell-based; conditions: added after radiation, 24 hr
Protocol: FRTL-5 thyroid cells (ATCC, catalog #CRL8305) were irradiated with 450 Gy without or with Zn^2+-chelates added before and/or after irradiation. […] In another experiment, Zn^2+-chelates (i.e., Zn-captopril, Zn-NAC, Zn-penicillamine, or Zn-PTCA) were added to human U937 cells either 30 minutes before, immediately after, or up to 4 hours after irradiation (4 Gy).

[4] = system: white pulp splenocytes; test: Total body irradiation of mice (8 Gy), TUNEL-positive white pulp splenocytes; type: in vivo, mouse
From the text: Mice were exposed to total body irradiation and the radioprotective effects of Zn^+-chelates administered before or after the irradiation were examined. Each unanesthetized mouse was placed temporarily in a well ventilated plexiglass restrainer and exposed to total body irradiation from a cesium irradiator. A dose of 8 Gy was chosen on the basis of previous studies utilizing male CD-1 mice (Bichay et al., 1986, supra). A total of 6-10 animals per group were used. The animals were allowed to survive for 36 hr after irradiation.
To test for radioprotective effects, Zn-DIPS was injected subcutaneously twice a day 15 mg/kg each time (i.e., 30 mg/kg/day). One group of animals (“before”) received Zn-DIPS starting 2 days before irradiation and continued until 36 hr after irradiation. Another group (“after”) was injected with Zn-DIPS about 30 min […] irradiation and continued until euthanasia. “Vehicle” control animals were injected with vehicle (i.e., saline) for the duration of the experiment, and irradiated with the same dose.
FIG. 12 presents the number of TUNEL-positive cells in white pulp splenocytes from the different groups.

Question: “Zn-3,5-diisopropylsalicylic acid [Zn-DIPS]” was tested. Which “Inhibition of DNase I activity” value ([1]; 0, 100 or 200 μM, 1 hour at 37° C., pBR322 plasmid DNA) did it give?
Answer: The value was “inhibited”.

Question: What about the “Ranking of nuclease inhibition among the Zn^2+-chelates tested” value ([1]; DNase I and serum DNase, FIG. 5) of the same substance?
Answer: The value was “best inhibition”.

Question: What about the “Inhibition of serum DNase activity” value [2] of the same substance?
Answer: Its value is “inhibited”.

Question: And the “Protection from radiation-induced thyroid cell death” value [3]?
Answer: The value was “provided protection”.

Question: What about the “Radioprotection (TUNEL-positive white pulp splenocytes), administered before irradiation” value ([4]; 15 mg/kg s.c. twice a day from 2 days before until 36 hr after irradiation) of the same substance?
Answer: Its value is “partial radioprotection”.

Question: And the “Radioprotection (TUNEL-positive white pulp splenocytes), administered after irradiation” value ([4]; 15 mg/kg s.c. twice a day, "after" group)?
Answer: Its value is “partial radioprotection”.

Question: And the “Protection of spleen compared with inactivation of DNase I” value ([4]; versus DNase I knock-out mice)?
Answer: Its value is “better protection”.
